SMILES strings stand for the structures. Some results are limits rather than exact numbers.

Our source for the IC50 values is patent publication US11414431B2, “Substituted pyrazolo[1,5-a]pyrimidines as TYK2 inhibitors” (Nimbus Lakshmi, Inc., priority 2018, dated 2022).

The assay has as its system IL-12 induced STAT4 phosphorlyation mediated by TYK2/JAK2. Nature of the assay: IL-12 Induced pSTAT4 in Human PBMC. To be noted: 1.7 ng/mL IL-12 for 30 minutes. The class given is cell-based. Put shortly: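 pSTAT4 and total STAT4 quantified by MSD in lysates of cryopreserved human PBMC after 30-minute stimulation with 1.7 ng/mL IL-12 (final). Compound was added 1 hr beforehand at 37° C, 0.1% DMSO final.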

`CNc1cc(-c2cn([C@H]3CC3(F)F)c3ncccc23)nc2c(C(=O)N[C@@H]3COC[C@@H]3O)cnn12` [Compound I-711] yielded an IC50 of under 0.1 µM.
Same read-out and setting: the value for `CNc1cc(-c2cn([C@@H]3CC3(F)F)c3ncccc23)nc2c(C(=O)N[C@@H]3COC[C@@H]3O)cnn12` [Compound I-713] was 0.1 to 0.5 µM.
With `CNc1cc(-c2cn([C@H]3CCC[C@H]3F)c3ncccc23)nc2c(C(=O)NC3COC[C@H]3O)cnn12` (stereo partly drawn) [Compound I-721, 5-(1-((1S,2R)-2-Fluorocyclopentyl)-1H-pyrrolo[2,3-b]pyridin-3-yl)-N-((cis-3,4)-4-hydroxytetrahydrofuran-3-yl)-7-(methylamino)pyrazolo[1,5-a]pyrimidine-3-carboxamide], the IC50 (0.5 h) was under 0.1 µM.
As for `CNc1cc(-c2cn([C@H]3CCC[C@H]3F)c3ncccc23)nc2c(C(=O)N[C@H]3COC[C@H]3O)cnn12` [Compound I-722], the IC50 is under 0.1 µM.
Same read-out and setting: the value for `CNc1cc(-c2cn([C@H]3COC[C@H]3F)c3ncccc23)nc2c(C(=O)N[C@H]3COC[C@H]3O)cnn12` [Compound I-726] was under 0.1 µM; that for `CNc1cc(-c2cn([C@@H]3COC[C@@H]3F)c3ncccc23)nc2c(C(=O)N[C@@H]3COC[C@@H]3O)cnn12` [Compound I-730] was 0.1 to 0.5 µM.
Same read-out and setting: the value for `CNc1cc(-c2cn([C@H]3COC[C@@H]3OC)c3ccccc23)nc2c(C(=O)NC3CC[C@@H]3OC)cnn12` (some centres unmarked) [Compound I-741] was under 0.1 µM; that for `CNc1cc(-c2cn([C@H]3COC[C@@H]3OC)c3ccccc23)nc2c(C(=O)N[C@H]3CC[C@@H]3OC)cnn12` [Compound I-742] was under 0.1 µM.
Same read-out and setting: with `CNc1cc(-c2cn([C@@H]3COC[C@H]3OC)c3ccccc23)nc2c(C(=O)NC3CC[C@@H]3OC)cnn12` (some centres unmarked) [Compound I-744] the figure was under 0.1 µM.
For the molecule `CNc1cc(-c2cn([C@@H]3COC[C@H]3OC)c3ccccc23)nc2c(C(=O)N[C@@H]3CC[C@H]3OC)cnn12` [Compound I-746], the IC50 is under 0.1 µM.
Same read-out and setting: with `CO[C@@H]1CC[C@H]1NC(=O)c1cnn2c3c(c(Nc4cccn(C(C)C)c4=O)nc12)OCCN3` [Compound I-760] the figure was under 0.1 µM.
`O=C(NC1CCC1(F)F)c1cnn2c3c(c(-c4cn([C@H]5C[C@H](O)C5)c5ncccc45)nc12)OCCN3` (stereo partly drawn) [Compound I-775, N-(2,2-Difluorocyclobutyl)-5-(1-((1r,3S)-3-hydroxycyclobutyl)-1H-pyrrolo[2,3-b]pyridin-3-yl)-2,3-dihydro-1H-pyrazolo[5′,1′:2,3]pyrimido [5,4-b][1,4]oxazine-7-carboxamide]: the IC50 (0.5 h) is under 0.1 µM.
Consider `O=C(N[C@H]1CCC1(F)F)c1cnn2c3c(c(-c4cn([C@H]5C[C@H](O)C5)c5ncccc45)nc12)OCCN3` [Compound I-776], for which the IC50 was under 0.1 µM.
On the same count and under the same terms, with `CNc1cc(Nc2cccn([C@H]3C[C@@H](OC)C3)c2=O)nc2c(C(=O)NC3CC[C@@H]3OC)cnn12` (some centres unmarked) [Compound I-780] the figure was under 0.1 µM; with `CNc1ccc(-c2cc(NC)n3ncc(C(=O)N[C@H]4CC[C@H]4F)c3n2)n2ccnc12` [Compound I-784], under 0.1 µM.
On the same count and under the same terms, the value for `CNc1cc(-c2cn([C@@H]3COC[C@H]3OC)c3ccccc23)nc2c(C(=O)N[C@H]3CC[C@H]3O)cnn12` [Compound I-787] was under 0.1 µM; that for `CNc1cc(-c2cn([C@H]3COC[C@@H]3OC)c3ccccc23)nc2c(C(=O)N[C@H]3CC[C@H]3O)cnn12` [Compound I-790] was under 0.1 µM.
In the case of `CNc1cc(-c2cn([C@H]3[C@@H]4COC[C@@H]43)c3ncccc23)nc2c(C(=O)NC3CC[C@@H]3OC)cnn12` (stereo partly drawn) [Compound I-792, 5-(1-((1R,5S,6r)-3-oxabicyclo[3.1.0]hexan-6-yl)-1H-pyrrolo[2,3-b]pyridin-3-yl)-N-((trans-1,2)-2-methoxycyclobutyl)-7-(methylamino)pyrazolo[1,5-a]pyrimidine-3-carboxamide], where the note is “0.5 h”, the IC50 was under 0.1 µM.
The molecule `CNc1cc(-c2cn([C@H]3[C@@H]4COC[C@@H]43)c3ncccc23)nc2c(C(=O)N[C@H]3CC[C@@H]3OC)cnn12` [Compound I-793, 5-(1-((1R,5S,6r)-3-oxabicyclo[3.1.0]hexan-6-yl)-1H-pyrrolo[2,3-b]pyridin-3-yl)-N-((1S,2S)-2-methoxycyclobutyl)-7-(methylamino)pyrazolo[1,5-a]pyrimidine-3-carboxamide] gave an IC50 of under 0.1 µM.
Still for that read-out and setting: the value for `CNc1cc(-c2cn(CCOC)c3ncccc23)nc2c(C(=O)NC3CC[C@@H]3OC)cnn12` (some centres unmarked) [Compound I-795] was under 0.1 µM; that for `CNc1cc(-c2cn([C@H]3CCOC[C@H]3OC)c3ncccc23)nc2c(C(=O)N[C@H]3CC[C@@H]3F)cnn12` [Compound I-796] was under 0.1 µM.
Same read-out and setting: the value for `CNc1cc(-c2cn([C@@H]3CCOC[C@@H]3OC)c3ncccc23)nc2c(C(=O)N[C@H]3CC[C@@H]3F)cnn12` [Compound I-798] was under 0.1 µM; that for `CNc1cc(-c2cn([C@H]3CCOC[C@@H]3F)c3ncccc23)nc2c(C(=O)N[C@H]3CC[C@@H]3OC)cnn12` [Compound I-802] was under 0.1 µM.
Still for that read-out and setting: with `CNc1cc(-c2cn([C@@H]3CCOC[C@H]3F)c3ncccc23)nc2c(C(=O)N[C@H]3CC[C@@H]3OC)cnn12` [Compound I-804] the figure was under 0.1 µM; with `CNc1cc(-c2cn([C@@H]3CCC4(C3)OCCO4)c3ncccc23)nc2c(C(=O)N[C@H]3CC[C@@H]3OC)cnn12` [Compound I-806], under 0.1 µM.
In turn, `CNc1cc(-c2cn([C@H]3CCC4(C3)OCCO4)c3ncccc23)nc2c(C(=O)N[C@H]3CC[C@@H]3OC)cnn12` [Compound I-808] yielded an IC50 of under 0.1 µM.
For `CNc1cc(-c2cn([C@H]3CCOC[C@H]3OC)c3ncccc23)nc2c(C(=O)N[C@@H]3CCC3(F)F)cnn12` [Compound I-811], the IC50 was under 0.1 µM.
For the setting “0.5 h”, `CNc1cc(-c2cnc3n([C@H]4COC[C@@H]4O)cccc2-3)nc2c(C(=O)NC3CC[C@@H]3F)cnn12` (stereo partly drawn) [Compound I-826, N-((trans-1,2)-2-Fluorocyclobutyl)-5-(7-((3S,4R)-4-hydroxytetrahydrofuran-3-yl)-7H-pyrrolo[2,3-b]pyridin-3-yl)-7-(methylamino)pyrazolo[1,5-a]pyrimidine-3-carboxamide] had an IC50 of under 0.1 µM.
`CNc1cc(-c2cnc3n([C@@H]4COC[C@H]4O)cccc2-3)nc2c(C(=O)NC3CC[C@@H]3F)cnn12` (some centres unmarked) [Compound I-827]: the IC50 is under 0.1 µM.
The same measure, in the same setting: the value for `CNc1cc(-c2cnc3n([C@H]4COC[C@@H]4O)cccc2-3)nc2c(C(=O)N[C@H]3CC[C@@H]3F)cnn12` [Compound I-828] was under 0.1 µM.
For the molecule `CNc1cc(-c2cnc3n([C@@H]4COC[C@H]4O)cccc2-3)nc2c(C(=O)N[C@H]3CC[C@@H]3F)cnn12` [Compound I-830], the IC50 is under 0.1 µM.
Same read-out and setting: the value for `CNc1cc(-c2cnc3n([C@H]4COC[C@@H]4OC)cccc2-3)nc2c(C(=O)N[C@H]3CC[C@@H]3F)cnn12` [Compound I-833] was under 0.1 µM.
The same measure, in the same setting: with `CNc1cc(-c2cnc3n([C@@H]4COC[C@H]4OC)cccc2-3)nc2c(C(=O)NC3CC[C@@H]3F)cnn12` (some centres unmarked) [Compound I-835] the figure was under 0.1 µM.
On the same count and under the same terms, with `CNc1cc(-c2cnc3n([C@H]4COC[C@@H]4OC)cccc2-3)nc2c(C(=O)NC3CC[C@H]3F)cnn12` (some centres unmarked) [Compound I-838] the figure was under 0.1 µM; with `CNc1cc(-c2cnc3n([C@H]4COC[C@@H]4OC)cccc2-3)nc2c(C(=O)N[C@H]3CC[C@H]3F)cnn12` [Compound I-839], under 0.1 µM.
